# Laboratory results as given in ChEMBL document CHEMBL1201862, “PubChem BioAssay data set” (2004).
#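 In this assay, cells in 96-well plates receive the compound at five concentrations for 48 hours. Endpoints are linearly interpolated between the surrounding concentrations. GI50 marks 50% less growth.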 Activity calls are given as the source filed them. Rule as the data show it: active = GI50 up to about 1.1 µM and inactive = higher.
# What was measured:
# Assay in all cases: NCI tumour cell line growth inhibition, 48 h
# DMS-273 = test system: DMS-273
# SNB-78 = test system: SNB-78
# RXF 631 = test system: RXF 631
# XF498 = test system: XF498
# KM-20L2 = test system: KM-20L2
# M19-MEL = test system: M19-MEL
# BT-549 = test system: BT-549
# Hs-578T = test system: Hs-578T
# T47D = test system: T47D
SMILES,GI50 (DMS-273),GI50 (SNB-78),GI50 (RXF 631),GI50 (XF498),GI50 (KM-20L2),GI50 (M19-MEL),GI50 (BT-549),GI50 (Hs-578T),GI50 (T47D)
CC(SC1=CC(=O)c2c(O)ccc(O)c2C1=O)C(=O)O (centres undefined),> 60.4 µM (inactive),> 47.4 µM (inactive),56.4 µM (inactive),> 49.9 µM (inactive),> 51.8 µM (inactive),,,,
COc1ccc(C(c2ccc(C(C)C)cc(=O)c2O)c2c(O)cc3oc(-c4ccccc4)cc(=O)c3c2O)cc1 (centres undefined),5.08 µM (inactive),20.8 µM (inactive),11.3 µM (inactive),9.4 µM (inactive),9.82 µM (inactive),7.33 µM (inactive),,,
CCC(C)C(=O)c1c(O)c(C/C=C(\C)CCC=C(C)C)c(O)c2c(C(O)CC)cc(=O)oc12 (centres undefined),1.58 µM (inactive),3.89 µM (inactive),1.74 µM (inactive),1.82 µM (inactive),1.23 µM (inactive),2.28 µM (inactive),,,
Cc1nc2ccc(C(F)(F)F)cc2nc1Nc1ccc(Cl)c(Cl)c1,4.81 µM (inactive),14.7 µM (inactive),7.41 µM (inactive),10 µM (inactive),4.11 µM (inactive),12.1 µM (inactive),,,
CC1NC(=O)C2=C1C(N)=NC(=O)C2 (centres undefined),> 100 µM (inactive),> 100 µM (inactive),,> 100 µM (inactive),> 100 µM (inactive),> 100 µM (inactive),,,
COc1cccc(/C=C/C(=O)c2sc(C(N)=S)nc2C)c1O,28.6 µM (inactive),> 100 µM (inactive),31.1 µM (inactive),> 100 µM (inactive),> 100 µM (inactive),34.4 µM (inactive),,,
C[C@H]1COC(c2ccccn2)=N1,> 100 µM (inactive),> 100 µM (inactive),,> 100 µM (inactive),> 100 µM (inactive),> 100 µM (inactive),,,
NCCCCNCCCNC(=O)c1nc(-c2nc(CCN)sc2Cl)sc1Cl,50.4 µM (inactive),> 100 µM (inactive),,> 100 µM (inactive),> 100 µM (inactive),> 100 µM (inactive),,,
CC1=N/C(=C/c2ccc3c(c2)OCO3)C(=O)O1,> 100 µM (inactive),> 100 µM (inactive),> 100 µM (inactive),> 100 µM (inactive),> 100 µM (inactive),> 100 µM (inactive),,,
CC(=O)NC(CCCNC(=O)N(C)N=O)C(=O)NCc1ccccc1 (centres undefined),> 100 µM (inactive),> 100 µM (inactive),> 100 µM (inactive),> 100 µM (inactive),> 100 µM (inactive),> 100 µM (inactive),,,
C#C[C@H](CCCC)OC(=O)N[C@H](C)c1ccccc1,38.8 µM (inactive),70 µM (inactive),62.1 µM (inactive),84.1 µM (inactive),66.5 µM (inactive),30.5 µM (inactive),,,
CC(=O)C1CC(C)=CCC12C(=O)Nc1ccccc12 (centres undefined),> 100 µM (inactive),,> 100 µM (inactive),> 100 µM (inactive),> 100 µM (inactive),,,,
NC(=O)c1ccccc1NC(=O)C(=O)Nc1n[nH]c(N)n1,> 100 µM (inactive),> 100 µM (inactive),,> 100 µM (inactive),> 100 µM (inactive),> 100 µM (inactive),,,
COC(=O)C#CC(N)=O,> 100 µM (inactive),> 100 µM (inactive),> 100 µM (inactive),,> 31.6 µM (inactive),> 64.3 µM (inactive),,,
NC(Cc1cc(I)c(O)c(I)c1)C(=O)O (centres undefined),> 206 µM (inactive),> 500 µM (inactive),,> 348 µM (inactive),> 500 µM (inactive),> 323 µM (inactive),,,
COc1cc(/C=C2/C(=O)NC(Cc3cc(OC)c(OC)c(C)c3OC)C(=O)N2Cc2ccccc2)c(OC)c(C)c1OC (centres undefined),51.5 µM (inactive),,90.2 µM (inactive),,95.9 µM (inactive),47.4 µM (inactive),,,
CN[C@@H](C)[C@@H](NC)c1ccccc1,> 100 µM (inactive),> 100 µM (inactive),> 100 µM (inactive),,,> 100 µM (inactive),,,
COc1cc(/C=C\c2cccnc2)cc(OC)c1OC,33.1 µM (inactive),> 100 µM (inactive),,48.9 µM (inactive),33.8 µM (inactive),76.7 µM (inactive),,,
CC(=O)OC(C)C(=O)C1c2cccc(O)c2C(=O)c2c(O)cc(C)cc21 (centres undefined),0.634 µM (active),0.753 µM (active),,0.234 µM (active),1.37 µM (inactive),0.367 µM (active),,,
COc1ccc2c(c1)O[C@H]1c3ccc(O)cc3OC[C@@H]21,30.9 µM (inactive),29.2 µM (inactive),31.8 µM (inactive),20.5 µM (inactive),31.6 µM (inactive),18 µM (inactive),,,
C/C(=N\N=C(/S)N1CCCCCC1)c1cccc[n+]1[O-],1.87 µM (inactive),11 µM (inactive),8.59 µM (inactive),5.27 µM (inactive),0.839 µM (active),8.39 µM (inactive),16 µM (inactive),33 µM (inactive),3.4 µM (inactive)
